Values joined by “and” are separate entries in the source; they are usually repeats but may differ in a detail not shown here. Equal entries are not always repeated.
Tests used:
Format in all cases: cell-based, human
[1] = system: cortical neurons from dissociated cortical spheres; assay: qRT-PCR of activity-induced genes after KCl stimulation of cortical neurons; conditions: KCl-stimulated cortical neurons, by one hour after stimulation
Text: (§1) It is well known that synaptic activation through depolarization induces a transcriptional response in neurons (Ebert and Greenberg, 2013; Flavell et al., 2008; Hong et al., 2008; Lin et al., 2008). A key event in many types of neurons, including cortical neurons, is the phosphorylation of the transcription factor CREB. To examine whether neurons from dissociated cortical spheres responded to activation, we depolarized them with KCl.
Total RNA was isolated using RNeasy mini kit (QIAGEN) and subsequent cDNA synthesis with iSCRIPT (Bio-Rad). qRT-PCR was then performed using SYBER green (Bio-Rad) on a QuantStudio™ 12 K Flex Real-Time PCR System (Life Technologies). Quantitative levels for all genes were normalized to endogenous GAPDH. Expression levels of individual genes were normalized to the levels in undifferentiated human ESC/iPSC of each line. For KCL experiments, expression levels were normalized to the levels in untreated cells.
KCl experiments were performed on spheres at day 20 of differentiation and on dissociated neurons 10 days after dissociation. Neurons were silenced overnight with TTX (Natchannel-blocker) (EMD Bioscience, 1 μM) and AP-V (NMDAR antagonist) (Sigma Aldrich, 100 μM), two compounds that together inhibit any spontaneous activity in cultured neurons. […] Phospho-CREB was detected by immunostaining as described.

[2] = system: HUES8-derived cortical neurons; assay: phospho-CREB immunocytochemistry after KCl depolarization of dissociated cortical neurons
Text: as §1
(§2) Cell cultures were fixed in 4% paraformaldehyde (PFA) in PBS at room temperature (RT) for 20 min, then blocked for 20 min in 5% horse serum (HS) (Gibco) and 0.1% Triton X-100 (Sigma) in PBS. Cells were incubated with primary antibodies overnight at 4° C. Secondary antibodies were applied for 1 hr at room temperature. Whole spheres were cleared using the SeeDB protocol as follows: samples were fixed in 4% PFA and blocked for 24-48 hrs in 0.1% Triton X-100 and 5% HS at 4° C. Samples were then incubated with primary antibodies for 2-3 days at 4° C. in either blocking solution or 10% HS. Samples were washed with PBS 3 times and incubated with secondary antibodies for 3 days in either blocking solution or 10% HS. Following washing with PBS, samples were serially incubated in 20%, 40%, 60%, and 80% (wt/vol) fructose for 6-12 hrs at 25° C. Samples were immersed in 100% (wt/vol) fructose for 24 hrs, followed by SeeDB (115%, wt/vol) for at least 24 hrs at 25° C. All solutions were prepared with H2O and contained 0.5% α-thioglycerol. Samples were stored in SeeDB at 4° C.
The primary antibodies used in this study were raised against PAX6 (Covance), OTX1-2, Ki67, TBR1, SATB2, CTIP2, and ISL1 (Abcam), GLUR1, and ChAT (Millipore), SYNAPSINI (Synaptic System), TUJ1 (Covance), and MAP2 (Lifespan Biosciences). Secondary antibodies were AlexaFluor488, -546, -555, and -647-conjugated antibodies raised against the appropriate species (Invitrogen). Immunocytochemical images were acquired on the Opera High-Content Screening System (PerkinElmer). Immunohistochemical images and Ca^2+ imaging was acquired on the Nikon Eclipse TE2000-S microscope equipped with a heated stage and a humidified chamber with atmospheric control. 3D LSFM was performed on the ZEISS Lightsheet.Z1 Microscope Quantitative image analysis of neuronal cultures was done using PerkinElmer Columbus Image Data Storage and Analysis System v2.3.3.
[…] Neurons were silenced overnight with TTX (Natchannel-blocker) (EMD Bioscience, 1 μM) and AP-V (NMDAR antagonist) (Sigma Aldrich, 100 μM), two compounds that together inhibit any spontaneous activity in cultured neurons. […] Phospho-CREB was detected by immunostaining as described.

[3] = system: dissociated neurons from motor neuron spheres; assay: phospho-CREB immunocytochemistry after KCl depolarization of motor neurons
Procedure: When stimulated with sonic hedgehog and retinoic acid at the proper doses and time points, differentiating cells within the spheres adopt the motor neuron fate and can be dissociated and replated without glial feeder layers.
as §2, with “All solutions were prepared with H2O and contained 0.5% α-thioglycerol. Samples were stored in SeeDB at 4° C.” left out
KCl experiments were performed on spheres at day 20 of differentiation and on dissociated neurons 10 days after dissociation. […] Phospho-CREB was detected by immunostaining as described.

[4] = system: HUES9-derived motor neurons; assay: GCaMP6 Ca2+ imaging after GABA and AMPA application; conditions: 100 μM, motor neurons cultured for 3 weeks after sphere dissociation
Procedure: Patch-clamp recordings were performed to further understand the electrophysiological characteristics of motor neurons from dissociated spheres.
For Ca^2+ imaging during the GABA switchover experiment cells were transduced with AAV1.Syn.GCaMP6s.WPRE.SV40 4 days after plating. During recording, coverslips were transferred to a perfusion chamber mounted on a Nikon Eclipse TE2000 microscope. Time-lapse recordings were performed at RT at a rate of 1 frame per second. GABA and AMPA were prepared and applied for 10 seconds in the same bath solution as used for electrophysiology. Mean fluorescent intensity of GCaMP6 fluorescence was measured in soma by ImageJ (U.S. National Institutes of Health, available at the world wide web at subdomain //imagej.nih.gov/ij/) and plotted by Igor. The amplitude was normalized to baseline fluorescent level (mean of 5 frames before drug application) for each cell. Background fluorescent level was determined in a cell-free area for each recording and subtracted.

| Compound | transcription of the early-induced genes NPAS4, cFOS, and ARC [1] | relative proportion of neurons positive for phospho-CREB, 30 min KCl ([2]; HUES8-derived cortical neurons 20 days after dissociation, KCl (60 mM) for 30 min, replicates and average of three independent experiments) | relative proportion of neurons positive for phospho-CREB, 1 hr KCl ([2]; HUES8-derived cortical neurons 20 days after dissociation, KCl (60 mM) for 1 hr, replicates and average of three independent experiments) | relative proportion of neurons positive for phospho-CREB, 6 hr KCl ([2]; HUES8-derived cortical neurons 20 days after dissociation, KCl (60 mM) for 6 hrs, replicates and average of three independent experiments) | phosphorylation of CREB after depolarization ([2]; neurons from dissociated cortical spheres depolarized with KCl) | phosphorylation of CREB in motor neurons after KCl depolarization [3] | intracellular Ca2+ response (GCaMP6 fluorescence) [4] |
| --- | --- | --- | --- | --- | --- | --- | --- |
| [Cl-].[K+] [KCl] | increased transcription | 45% and 35% and 38% | 38% and 34% and 32% | 29% (2×) and 36% | robust phosphorylation of CREB | phosphorylation of CREB |  |
| Cc1o[nH]c(=O)c1CC(N)C(=O)O (centres unmarked) [AMPA] |  |  |  |  |  |  | responded |
| NCCCC(=O)O [GABA] |  |  |  |  |  |  | responded |
